Results reported in ChEMBL document CHEMBL4422633, “Antioxidant-Inspired Drug Discovery: Antitumor Metabolite Is Formed in Situ from a Hydroxycinnamic Acid Derivative upon Free-Radical Scavenging” (J Med Chem, 2019).
pIC50: −log10 of the molar value. Calls of active or inactive are those of the source. The rule behind the calls is not given here.

Assays:
HeLa = experiment: Cytotoxicity against human HeLa cells assessed as reduction in cell viability after 72 hrs by MTT assay; assay type: functional, cell-based
NCI-H661 [1] = experiment: Induction of apoptosis in human NCI-H661 cells assessed as viable cells at 10 uM after 24 hrs by Annexin V/propidium iodide-staining based flow cytometry (reference value: 96.16 +/- 0.96%); assay type: functional; conditions: NCI-H661, 24 h, read-out: Activity
NCI-H661 [2] = experiment: Induction of apoptosis in human NCI-H661 cells assessed as late apoptotic cells at 10 uM after 24 hrs by Annexin V/propidium iodide-staining based flow cytometry (reference value: 0.95 +/- 0.03%); assay type: functional
[3] = target: Serine/threonine-protein kinase Chk2 (Homo sapiens) (UniProt O96017); experiment: Induction of CHK2 phosphorylation at T68 in human MCF7 cells at 10 uM pretreated for 30 mins followed by 10 J/m'2 irradiation and measured after 1 hr by Western blot analysis; assay type: cell-based
NCI-H460 [4] = experiment: Induction of apoptosis in human NCI-H460 cells assessed as necrotic cells at 10 uM after 24 hrs by Annexin V/propidium iodide-staining based flow cytometry (reference value: 2.13 +/- 0.02%); assay type: functional
MCF7 = experiment: Cytotoxicity against human MCF7 cells assessed as reduction in cell viability after 72 hrs by MTT assay; assay type: functional, cell-based; conditions: MCF7, 72 h
[5] = Induction of apoptosis in human HaCaT cells assessed as viable cells at 10 uM after 24 hrs by Annexin V/propidium iodide-staining based flow cytometry (reference value: 95.63 +/- 3.83%); assay type: cell-based; conditions: read-out: Activity
Homo sapiens [6] = species: Homo sapiens; experiment: Induction of ROS generation in human NCI-H460/R cells transfected with MDR assessed as increase DHE positive cells at 10 uM after 24 hrs by DHE-staining based flow cytometry; assay type: functional, cell-based
[7] = Induction of apoptosis in human NCI-H460/R cells transfected with MDR assessed as late apoptotic cells at 10 uM after 24 hrs by Annexin V/propidium iodide-staining based flow cytometry (reference value: 0.84 +/- 0.01%); assay type: functional
HaCaT [8] = experiment: Induction of apoptosis in human HaCaT cells assessed as early apoptotic cells at 10 uM after 24 hrs by Annexin V/propidium iodide-staining based flow cytometry (reference value: 0.23 +/- 0.01%); assay type: cell-based
NCI-H460 [9] = experiment: Induction of ROS generation in human NCI-H460 cells assessed as increase DHE positive cells at 10 uM after 24 hrs by DHE-staining based flow cytometry; assay type: functional, cell-based
A549 [10] = experiment: Induction of DNA damage response in human A549 cells assessed as increase in H2AX expression at 10 uM after 24 hrs by alexa fluor 488-staining based flow cytometry; assay type: functional, cell-based
A549 [11] = experiment: Induction of apoptosis in human A549 cells assessed as late apoptotic cells at 10 uM after 24 hrs by Annexin V/propidium iodide-staining based flow cytometry (reference value: 1.54 +/- 0.03%); assay type: functional
HaCaT [12] = experiment: Induction of apoptosis in human HaCaT cells assessed as necrotic cells at 10 uM after 24 hrs by Annexin V/propidium iodide-staining based flow cytometry (reference value: 1.88 +/- 0.02%); assay type: cell-based
[13] = target: T1, Serine/threonine-protein kinase Chk1 (Homo sapiens) (UniProt O14757); experiment: Inhibition of CHK1 phosphorylation at S345 in human MCF7 cells at 10 uM pretreated for 30 mins followed by 10 J/m'2 irradiation and measured after 1 hr by Western blot analysis; assay type: cell-based
T1 sequence (whole entry): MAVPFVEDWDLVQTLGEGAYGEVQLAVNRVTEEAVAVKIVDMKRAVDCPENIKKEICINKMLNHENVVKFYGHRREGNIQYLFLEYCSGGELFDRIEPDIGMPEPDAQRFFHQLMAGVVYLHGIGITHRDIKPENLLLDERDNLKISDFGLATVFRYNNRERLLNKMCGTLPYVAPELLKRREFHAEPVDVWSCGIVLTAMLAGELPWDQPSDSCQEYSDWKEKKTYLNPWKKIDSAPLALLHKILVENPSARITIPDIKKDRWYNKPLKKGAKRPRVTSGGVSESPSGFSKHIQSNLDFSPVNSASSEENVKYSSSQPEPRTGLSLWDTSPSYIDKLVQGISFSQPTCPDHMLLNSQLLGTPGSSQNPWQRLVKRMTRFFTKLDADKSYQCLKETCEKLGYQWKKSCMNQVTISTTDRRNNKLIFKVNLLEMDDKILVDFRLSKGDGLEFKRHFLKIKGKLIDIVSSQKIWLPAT

HaCaT [14] = experiment: Induction of ROS generation in human HaCaT cells assessed as increase DHE positive cells at 10 uM after 24 hrs by DHE-staining based flow cytometry; assay type: cell-based
A549 [15] = experiment: Induction of ROS generation in human A549 cells assessed as increase DHE positive cells at 10 uM after 24 hrs by DHE-staining based flow cytometry; assay type: functional, cell-based
NCI-H460 [16] = experiment: Induction of apoptosis in human NCI-H460 cells assessed as late apoptotic cells at 10 uM after 24 hrs by Annexin V/propidium iodide-staining based flow cytometry (reference value: 0.93 +/- 0.04%); assay type: functional
NCI-H460 [17] = experiment: Induction of DNA damage response in human NCI-H460 cells assessed as increase in H2AX expression at 10 uM after 24 hrs by alexa fluor 488-staining based flow cytometry; assay type: functional, cell-based
[18] = Cytotoxicity against mouse L5178 cells assessed as reduction in cell viability after 72 hrs by MTT assay; assay type: functional, cell-based; conditions: L5178, 72 h
Homo sapiens [19] = species: Homo sapiens; experiment: Induction of DNA damage response in human NCI-H460/R cells transfected with MDR assessed as increase in H2AX expression at 10 uM after 24 hrs by alexa fluor 488-staining based flow cytometry; assay type: functional, cell-based
NCI-H460 [20] = experiment: Induction of apoptosis in human NCI-H460 cells assessed as early apoptotic cells at 10 uM after 24 hrs by Annexin V/propidium iodide-staining based flow cytometry (reference value: 0.45 +/- 0.01%); assay type: functional
A549 [21] = experiment: Induction of apoptosis in human A549 cells assessed as necrotic cells at 10 uM after 24 hrs by Annexin V/propidium iodide-staining based flow cytometry (reference value: 1.52 +/- 0.05%); assay type: functional
[22] = Cytotoxicity against mouse L5178B1 cells transfected with pHa MDR1/A retrovirus assessed as reduction in cell viability after 72 hrs by MTT assay; assay type: functional, cell-based; conditions: MDR1, 72 h
A549 [23] = experiment: Induction of apoptosis in human A549 cells assessed as viable cells at 10 uM after 24 hrs by Annexin V/propidium iodide-staining based flow cytometry (reference value: 96.45 +/- 2.89%); assay type: functional; conditions: A549, 24 h, read-out: Activity
NCI-H661 [24] = experiment: Induction of apoptosis in human NCI-H661 cells assessed as necrotic cells at 10 uM after 24 hrs by Annexin V/propidium iodide-staining based flow cytometry (reference value: 2.58 +/- 0.05%); assay type: functional
[25] = Drug level using p-coumaric acid methyl ester assessed as compound formation by reverse phase-HPLC and HPLC-MS analysis based Fenton reaction assay; assay type: physicochemical
SiHa = experiment: Cytotoxicity against human SiHa cells assessed as reduction in cell viability after 72 hrs by MTT assay; assay type: functional, cell-based
NCI-H661 [26] = experiment: Induction of ROS generation in human NCI-H661 cells assessed as increase DHE positive cells at 10 uM after 24 hrs by DHE-staining based flow cytometry; assay type: functional, cell-based

Chain of Serine/threonine-protein kinase Chk2 (Homo sapiens) (O96017 whole entry): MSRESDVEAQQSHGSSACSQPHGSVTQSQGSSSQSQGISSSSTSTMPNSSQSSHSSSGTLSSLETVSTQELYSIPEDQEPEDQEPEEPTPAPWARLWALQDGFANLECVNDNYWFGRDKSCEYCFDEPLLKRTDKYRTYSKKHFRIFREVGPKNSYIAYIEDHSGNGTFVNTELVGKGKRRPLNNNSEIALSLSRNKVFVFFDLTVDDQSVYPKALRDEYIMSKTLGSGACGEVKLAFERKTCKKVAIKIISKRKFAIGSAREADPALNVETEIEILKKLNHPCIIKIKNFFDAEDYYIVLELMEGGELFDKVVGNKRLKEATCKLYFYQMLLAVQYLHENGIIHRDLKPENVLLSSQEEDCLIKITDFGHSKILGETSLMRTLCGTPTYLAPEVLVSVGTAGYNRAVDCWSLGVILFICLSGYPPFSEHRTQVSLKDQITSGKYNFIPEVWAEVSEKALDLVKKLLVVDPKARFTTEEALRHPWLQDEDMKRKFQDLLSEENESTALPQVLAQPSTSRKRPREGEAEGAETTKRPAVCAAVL

- Activity [3]: Active
- inhibition [13]: Active
- Drug uptake [25]: Active
SMILES: COC(=O)/C=C/C1(O)C=CC(=O)C=C1
- pIC50 (HeLa): 5.01
- viability at 10 µM (NCI-H661 [1]): 45.4%
- Activity (NCI-H661 [2]): 9.57%
- Activity (NCI-H460 [4]): 7.31%
- pIC50 (MCF7): 5.21
- viability at 24 h, 10 µM [5]: 91.5%
- Activity (Homo sapiens [6]): inactive
- Activity [7]: 2.34%
- Activity (HaCaT [8]): 0.44%
- Activity (NCI-H460 [9]): Active
- Activity (A549 [10]): Active
- Activity (A549 [11]): 3.93%
- Activity (HaCaT [12]): 5.21%
- Activity (HaCaT [14]): Non-Toxic
- Activity (A549 [15]): Active
- Activity (NCI-H460 [16]): 3.35%
- Activity (NCI-H460 [17]): Active
- pIC50 [18]: 6.34
- Activity (Homo sapiens [19]): Active
- Activity (NCI-H460 [20]): 0.21%
- Activity (A549 [21]): 2.57%
- pIC50 [22]: 6.21
- viability at 10 µM (A549 [23]): 92.8%
- Activity (NCI-H661 [24]): 44.82%
- pIC50 (SiHa): 5.05
- Activity (NCI-H661 [26]): Active
